Source: patent US9073954B2, “5-substituted benzimidazolium compounds” (Boehringer Ingelheim International GmbH, priority 2013, dated 2015)
Read-outs that look alike come from different tables or passages of the source.

Tests used:
[1] = Permeability in CALU-3 cells; format: in vitro ADME; details: human, CALU-3 monolayers, 10 μM compound, pH 7.4, 37° C.; for Papp A→B at 90 min, 10 μM: apical-to-basal; for Papp B→A at 90 min, 10 μM: basal-to-apical
Description: Permeability in CALU-3 Cells:
Permeability measurements across polarized, confluent CALU-3 cell monolayers grown on permeable filter supports are used to provide information on the potential of a compound to pass the lung epithelium. Apparent permeability coefficients (Papp) of the compounds across the CALU-3 cell monolayers are measured (pH 7.4, 37° C.) in apical-to-basal (AB) and basal-toapical (BA) transport direction.
CALU-3 cells (1-2×10^5 cells/1 cm^2 area) are seeded on filter inserts (Costar transwell polycarbonate filters, 0.4 μm pore size) and cultured (for 10-12 days DMEM) until tight monolayers are formed. Compounds of interest are dissolved in appropriate solvent (DMSO, 10 mM stock solution). Stock solutions are diluted with HTP-4 buffer (128.13 mM NaCl, 5.36 mM KC, 1 mM MgSO4, 1.8 mM CaCl2, 4.17 mM NaHCO3, 1.19 mM Na2HPO4×7H2O, 0.41 mM NaH2PO4xH2O, 15 mM HEPES, 20 mM glucose, 0.25% BSA, pH 7.4) to prepare the transport solutions (10 μM compound, final DMSO<=0.5%). The transport solution (TL) is applied to the apical or basolateral donor side for measuring A-B or B-A permeability (3 filter replicates), respectively. The receiver side contains the same buffer as the donor side. After 30 min of accommodation, samples are collected at the start t0=0 min and at the end of the experiment tn=90 min from the donor and at 0, 30, 60, and 90 min also from the receiver chamber. Volume removed is replenished by HTP-4 buffer. The compound concentration in the samples is measured by HPLC-MS/MS or scintillation counting. The permeability coefficient (Papp) and efflux ratio are calculated according to: Papp [cm/s]=(concentration receiver [nM]*volume receiver [mL]/time interval [sec])*(1/filter area)*(1/donor concentration [nM])
With example compounds given above, the following permeability values were determined in the CALU-3 cells assay: […]

[2] = target: T1, ENaC (Epithelial Sodium Channel) (Mus musculus, UniProt Q61180+Q9WU38+Q9WU39); assay: Ussing chamber: short circuit current in M-1 cells; format: cell-based
T1 construct: Mouse kidney M-1 cells were cultivated in DMEM; endogenous in cells; host or cells: mouse kidney M-1 cells
T1 sequence (Q61180 1-699): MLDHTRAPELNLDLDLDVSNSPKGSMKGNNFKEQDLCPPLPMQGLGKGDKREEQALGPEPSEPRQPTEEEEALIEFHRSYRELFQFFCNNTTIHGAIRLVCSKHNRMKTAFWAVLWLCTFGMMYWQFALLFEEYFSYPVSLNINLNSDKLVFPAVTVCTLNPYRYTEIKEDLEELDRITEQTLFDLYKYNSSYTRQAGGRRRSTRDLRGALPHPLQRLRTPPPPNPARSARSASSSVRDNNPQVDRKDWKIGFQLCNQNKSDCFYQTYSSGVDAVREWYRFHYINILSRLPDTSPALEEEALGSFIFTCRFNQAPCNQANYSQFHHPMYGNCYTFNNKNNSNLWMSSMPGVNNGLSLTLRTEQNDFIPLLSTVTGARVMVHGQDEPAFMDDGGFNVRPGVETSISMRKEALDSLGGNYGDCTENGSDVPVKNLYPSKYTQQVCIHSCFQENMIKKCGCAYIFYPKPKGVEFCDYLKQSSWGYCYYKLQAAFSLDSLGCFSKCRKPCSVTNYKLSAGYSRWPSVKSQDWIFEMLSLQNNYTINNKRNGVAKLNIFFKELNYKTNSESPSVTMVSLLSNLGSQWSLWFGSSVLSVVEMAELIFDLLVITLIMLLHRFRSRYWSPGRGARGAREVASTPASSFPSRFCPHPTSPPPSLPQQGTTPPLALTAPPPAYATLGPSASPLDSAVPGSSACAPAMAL
T1 sequence (Q9WU38 1-638): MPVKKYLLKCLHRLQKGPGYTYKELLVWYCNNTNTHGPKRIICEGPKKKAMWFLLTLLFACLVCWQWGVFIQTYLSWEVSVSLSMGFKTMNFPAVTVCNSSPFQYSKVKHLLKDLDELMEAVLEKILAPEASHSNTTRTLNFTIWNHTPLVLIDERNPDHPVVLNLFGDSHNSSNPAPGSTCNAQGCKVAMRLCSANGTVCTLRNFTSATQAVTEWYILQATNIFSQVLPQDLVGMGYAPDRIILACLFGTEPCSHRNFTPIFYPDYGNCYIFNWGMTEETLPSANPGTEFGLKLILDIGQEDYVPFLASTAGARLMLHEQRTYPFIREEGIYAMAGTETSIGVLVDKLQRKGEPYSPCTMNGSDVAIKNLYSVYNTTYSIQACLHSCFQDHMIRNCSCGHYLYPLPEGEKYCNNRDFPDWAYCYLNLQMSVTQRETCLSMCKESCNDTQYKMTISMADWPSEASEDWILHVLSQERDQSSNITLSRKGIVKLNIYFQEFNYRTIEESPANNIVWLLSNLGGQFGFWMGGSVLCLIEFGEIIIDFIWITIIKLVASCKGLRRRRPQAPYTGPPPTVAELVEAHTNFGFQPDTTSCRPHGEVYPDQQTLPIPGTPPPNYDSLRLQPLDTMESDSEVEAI
T1 sequence (Q9WU39 1-655): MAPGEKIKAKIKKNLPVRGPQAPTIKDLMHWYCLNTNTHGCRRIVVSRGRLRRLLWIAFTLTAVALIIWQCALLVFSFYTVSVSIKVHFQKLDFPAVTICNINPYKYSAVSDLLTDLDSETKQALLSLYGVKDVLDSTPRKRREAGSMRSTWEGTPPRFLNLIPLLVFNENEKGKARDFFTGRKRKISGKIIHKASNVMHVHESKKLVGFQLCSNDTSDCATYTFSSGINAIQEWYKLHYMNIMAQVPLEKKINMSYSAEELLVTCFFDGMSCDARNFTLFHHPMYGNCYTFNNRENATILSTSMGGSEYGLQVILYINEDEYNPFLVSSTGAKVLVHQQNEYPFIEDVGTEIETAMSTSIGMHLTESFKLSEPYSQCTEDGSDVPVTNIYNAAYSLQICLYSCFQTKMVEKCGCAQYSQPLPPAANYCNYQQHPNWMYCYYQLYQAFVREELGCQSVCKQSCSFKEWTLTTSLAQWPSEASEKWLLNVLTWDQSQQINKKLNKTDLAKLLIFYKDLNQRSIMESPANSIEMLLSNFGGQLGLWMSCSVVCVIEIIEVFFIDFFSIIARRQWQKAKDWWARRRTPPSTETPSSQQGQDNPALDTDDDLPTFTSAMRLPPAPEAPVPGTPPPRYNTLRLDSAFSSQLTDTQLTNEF
Description: Mouse kidney M-1 cells were cultivated in DMEM containing 5% FCS and 5 μM dexamethasone for 10 to 12 days on polyester transwell filters. Filters were inserted into a teflon-coated well-plate which fit into the ussing chamber system. Prior to measurement the medium of M-1 cells was replaced with Caco-2 transport buffer (Invitrogen, Germany). During measurements, the Ussing chamber temperature was kept at 37° C. Short circuit currents (I_sc) were measured in the voltage-clamp mode with the software package Lab View for data acquisition and analysis. The transepithelial electrical resistance (TEER) was determined by the application of voltage steps of ±5 mV every 5 sec. Compounds were administered at a final concentration of 3 μM or at increasing concentrations (1-3-10 μM) to the apical solution. At the end of each experiment the amiloride sensitive I_SC was measured by adding 3 μM amiloride to the apical compartment. Results are expressed as inhibition in percent of the amiloride effect or as IC50.
With the example compounds given above, the following IC50 values were determined in the Ussing Chamber assay: […]

[3] = Ussing chamber, mouse kidney M-1 cells, amiloride sensitive I_SC, apical application, 37° C., read-out: IC50

In the case of `CCOP(=O)([O-])CCCOc1ccc2c(c1)n(CC)c(CNC(=O)c1nc(Cl)c(N)nc1N)[n+]2CCOC` [Example 1.1], the Papp A→B at 90 min, 10 μM [1] is reported as 0.1 ×10⁻⁶ cm/s, the Papp B→A at 90 min, 10 μM [1] is reported as 0.03 ×10⁻⁶ cm/s and the IC50 [2, 3] is reported as 11 nM.

Work on `CCn1c(CNC(=O)c2nc(Cl)c(N)nc2N)[n+](CC)c2ccc(CNC(=O)OCC3c4ccccc4-c4ccccc43)cc21` [Example 1.2] yielded an IC50 [2, 3] of 9 nM.

For `CCn1c(CNC(=O)c2nc(Cl)c(N)nc2N)[n+](CC)c2cc(Cl)c(N(CCO)CCO)cc21` [Example 1.3], the IC50 [2, 3] was 2 nM.

With `CCn1c(CNC(=O)c2nc(Cl)c(N)nc2N)[n+](CC)c2ccc(OCCNC(=O)OC(C)(C)C)cc21` [Example 1.4] the IC50 [2, 3] was 0.4 nM.

Work on `CCn1c(CNC(=O)c2nc(Cl)c(N)nc2N)[n+](CC)c2cc(Cl)c(O[C@H]3CO[C@H]4[C@@H]3OC[C@@H]4O)cc21` [Example 1.5] yielded a Papp A→B at 90 min, 10 μM [1] of 0.3 ×10⁻⁶ cm/s, a Papp B→A at 90 min, 10 μM [1] of 0.1 ×10⁻⁶ cm/s and an IC50 [2, 3] of 1 nM.

`CCn1c(CNC(=O)c2nc(Cl)c(N)nc2N)[n+](C[C@H](C)O)c2cc(OCCN)ccc21` [Example 1.7] showed a Papp A→B at 90 min, 10 μM [1] of 0.03 ×10⁻⁶ cm/s, a Papp B→A at 90 min, 10 μM [1] of 0.05 ×10⁻⁶ cm/s and an IC50 [2, 3] of 2 nM.

`CCOP(=O)([O-])CCCOc1ccc2c(c1)n(CC)c(CNC(=O)c1nc(Br)c(N)nc1N)[n+]2CCOC` [Example 2.1] gave a Papp A→B at 90 min, 10 μM [1] of 0.2 ×10⁻⁶ cm/s, a Papp B→A at 90 min, 10 μM [1] of 0.08 ×10⁻⁶ cm/s and an IC50 [2, 3] of 16 nM.

With `CCOP(=O)(CCCOc1ccc2c(c1)n(CC)c(CNC(=O)c1nc(Cl)c(N)nc1N)[n+]2CC)OCC` [Example 3.1] the IC50 [2, 3] was 3 nM.

With `CCn1c(CNC(=O)c2nc(Cl)c(N)nc2N)[n+](CC)c2cc(Cl)c(OCCOCCOC)cc21` [Example 3.2] the IC50 [2, 3] was 0.5 nM.

For `CCn1c(CNC(=O)c2nc(Cl)c(N)nc2N)[n+](CC)c2ccc(O[C@H](C)C(=O)N3CCNC(=O)C3)cc21` [Example 3.3], the IC50 [2, 3] was 1 nM.

For `CCNC(=O)COc1ccc2c(c1)n(C(C)C)c(CNC(=O)c1nc(Cl)c(N)nc1N)[n+]2CC` [Example 3.4], the IC50 [2, 3] was 1 nM.

With `CCNC(=O)[C@@H](C)Oc1ccc2c(c1)n(CC)c(CNC(=O)c1nc(Cl)c(N)nc1N)[n+]2CC` [Example 3.5] the Papp A→B at 90 min, 10 μM [1] was 1 ×10⁻⁶ cm/s, the Papp B→A at 90 min, 10 μM [1] was 0.4 ×10⁻⁶ cm/s and the IC50 [2, 3] was 0.5 nM.

`CCNC(=O)[C@H](C)Oc1ccc2c(c1)n(CC)c(CNC(=O)c1nc(Cl)c(N)nc1N)[n+]2CC` [Example 3.6] showed an IC50 [2, 3] of 1 nM.

`CC[n+]1c(CNC(=O)c2nc(Cl)c(N)nc2N)n(CCCCCO)c2cc(O)ccc21` [Example 3.7] showed a Papp A→B at 90 min, 10 μM [1] of 0.7 ×10⁻⁶ cm/s and a Papp B→A at 90 min, 10 μM [1] of 0.3 ×10⁻⁶ cm/s.

With `CCn1c(CNC(=O)c2nc(Cl)c(N)nc2N)[n+](C)c2ccc(O)cc21` [Example 3.9] the IC50 [2, 3] was 1 nM.

`CCn1c(CNC(=O)c2nc(Cl)c(N)nc2N)[n+](CC)c2ccc(O)cc21` [Example 3.10] gave an IC50 [2, 3] of 0.2 nM.

In the case of `CCOP(=O)(CCCOc1ccc2c(c1)n(CC)c(CNC(=O)c1nc(Cl)c(N)nc1N)[n+]2CCOC)OCC` [Example 3.13], the IC50 [2] is reported as 2 nM.

`CCNC(=O)COc1ccc2c(c1)n(CC)c(CNC(=O)c1nc(Cl)c(N)nc1N)[n+]2CC` [Example 3.14] showed an IC50 [2, 3] of 0.3 nM.

`CCn1c(CNC(=O)c2nc(Cl)c(N)nc2N)[n+](CC)c2ccc(O[C@@H]3CO[C@H]4[C@@H]3OC[C@H]4O)cc21` [Example 3.15] showed an IC50 [2, 3] of 3 nM.

`CCn1c(CNC(=O)c2nc(Cl)c(N)nc2N)[n+](CC)c2ccc(OCCCP(=O)([O-])O)cc21` [Example 4.1] showed an IC50 [2, 3] of 11 nM.

With `CCn1c(CNC(=O)c2nc(Cl)c(N)nc2N)[n+](CC)c2ccc(OCCNCC(=O)[O-])cc21` [Example 5.1] the IC50 [2, 3] was 5 nM.

For `CCn1c(CNC(=O)c2nc(Cl)c(N)nc2N)[n+](CC)c2ccc(CN)cc21` [Example 6.1], the IC50 [2, 3] was 1 nM.

`CCn1c(CNC(=O)c2nc(Cl)c(N)nc2N)[n+](CC)c2ccc(OCCN)cc21` [Example 6.2] showed an IC50 [2, 3] of 1 nM.

With `CCNC(=O)c1cc2c(cc1OCC(=O)N1CCNCC1)n(CC)c(CNC(=O)c1nc(Cl)c(N)nc1N)[n+]2CC` [Example 6.3] the IC50 [2, 3] was 4 nM.

With `CCn1c(CNC(=O)c2nc(Cl)c(N)nc2N)[n+](CC)c2ccc(OCCNC(=O)C[N+](C)(C)C)cc21` [Example 8.1] the IC50 [2, 3] was 0.4 nM.

Work on `CCn1c(CNC(=O)c2nc(Cl)c(N)nc2N)[n+](CC)c2ccc(CNC(=O)C[N+](C)(C)C)cc21` [Example 8.2] yielded an IC50 [2, 3] of 5 nM.

`CCn1c(CNC(=O)c2nc(Cl)c(N)nc2N)[n+](CC)c2ccc(C[N+](C)(C)C)cc21` [Example 8.3] showed an IC50 [2, 3] of 2 nM.

`CCn1c(CNC(=O)c2nc(Cl)c(N)nc2N)[n+](CC)c2ccc(OCCNCC(=O)OC)cc21` [Example 9.1] gave an IC50 [2, 3] of 2 nM.

In the case of `CCn1c(CNC(=O)c2nc(Cl)c(N)nc2N)[n+](CC)c2ccc(OCCNC(=N)N)cc21` [Example 10.1], the IC50 [2, 3] is reported as 0.3 nM.

`CCn1c(CNC(=O)c2nc(Cl)c(N)nc2N)[n+](CC)c2ccc(CNC(=O)COc3cc(C(=O)N[C@H]4CC[C@H](N(C)C)CC4)cc(C(=O)N[C@H]4CC[C@H](N(C)C)CC4)c3)cc21` [Example 11.1] showed an IC50 [2, 3] of 2 nM.
